{"source": "patent US20170320870A1", "about": "(Medical Research Council Technology, priority 2009, published 2017)"}
{"molecular_target": "T1, LRRK2 wild type (recombinant human, catalytic domain amino acids 970-2527, GST-tagged) (Homo sapiens, UniProt Q5S007)", "T1 construct": "The wild type used was recombinant human, catalytic domain (amino acids 970-2527) GST-tagged, expressed in insect cells; GST; purchased Invitrogen Corporation PV4873; host or cells: insect cells", "T1 sequence (Q5S007 970-2527)": "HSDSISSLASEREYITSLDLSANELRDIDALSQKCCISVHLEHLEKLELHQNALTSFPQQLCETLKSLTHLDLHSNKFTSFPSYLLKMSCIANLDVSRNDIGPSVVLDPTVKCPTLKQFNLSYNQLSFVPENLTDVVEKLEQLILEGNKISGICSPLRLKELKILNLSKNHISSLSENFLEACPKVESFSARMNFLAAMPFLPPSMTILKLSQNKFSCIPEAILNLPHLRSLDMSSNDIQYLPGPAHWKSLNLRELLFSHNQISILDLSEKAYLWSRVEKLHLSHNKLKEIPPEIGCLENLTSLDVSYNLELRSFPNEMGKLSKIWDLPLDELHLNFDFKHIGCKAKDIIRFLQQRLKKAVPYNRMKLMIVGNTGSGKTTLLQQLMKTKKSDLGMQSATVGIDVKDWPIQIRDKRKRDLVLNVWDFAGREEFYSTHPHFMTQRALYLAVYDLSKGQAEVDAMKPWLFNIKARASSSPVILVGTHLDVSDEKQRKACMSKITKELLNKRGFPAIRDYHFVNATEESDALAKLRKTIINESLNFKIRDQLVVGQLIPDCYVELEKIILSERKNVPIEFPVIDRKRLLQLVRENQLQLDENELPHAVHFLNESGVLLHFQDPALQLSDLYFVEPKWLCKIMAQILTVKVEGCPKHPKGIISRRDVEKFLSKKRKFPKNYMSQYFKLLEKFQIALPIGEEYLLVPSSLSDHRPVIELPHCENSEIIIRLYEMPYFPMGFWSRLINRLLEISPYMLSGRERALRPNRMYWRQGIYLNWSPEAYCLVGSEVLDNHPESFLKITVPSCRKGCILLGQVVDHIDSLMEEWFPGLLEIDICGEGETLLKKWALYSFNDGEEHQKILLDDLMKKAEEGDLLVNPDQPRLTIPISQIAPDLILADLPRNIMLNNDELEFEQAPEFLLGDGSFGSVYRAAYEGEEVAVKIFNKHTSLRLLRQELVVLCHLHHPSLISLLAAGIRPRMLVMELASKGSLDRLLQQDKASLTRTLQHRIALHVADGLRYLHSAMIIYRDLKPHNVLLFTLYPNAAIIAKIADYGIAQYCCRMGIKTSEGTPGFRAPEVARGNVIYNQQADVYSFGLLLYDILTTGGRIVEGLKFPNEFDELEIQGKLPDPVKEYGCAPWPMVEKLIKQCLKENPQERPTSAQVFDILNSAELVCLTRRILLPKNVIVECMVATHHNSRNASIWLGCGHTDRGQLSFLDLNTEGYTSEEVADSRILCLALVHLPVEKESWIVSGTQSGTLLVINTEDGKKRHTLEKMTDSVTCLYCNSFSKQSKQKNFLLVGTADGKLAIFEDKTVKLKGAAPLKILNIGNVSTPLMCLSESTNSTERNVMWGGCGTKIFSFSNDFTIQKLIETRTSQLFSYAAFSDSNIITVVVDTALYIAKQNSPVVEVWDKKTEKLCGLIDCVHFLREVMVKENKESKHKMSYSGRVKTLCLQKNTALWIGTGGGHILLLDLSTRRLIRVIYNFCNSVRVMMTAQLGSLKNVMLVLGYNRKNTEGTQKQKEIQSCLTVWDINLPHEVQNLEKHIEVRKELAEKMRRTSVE", "assay": "LRRK2 wild type protein kinase assay ([γ-33P] ATP, peptide substrate […]), IC50", "format": "biochemical", "conditions": "LRRK2 (variant not given); read-out: Potency score, LRRK2 IC50", "procedure,_shortened": "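Insect-cell-expressed enzyme (~5 nM), no activation, incubated 180 min at ~21 °C in 50 mM Tris-HCl pH 7.5, 0.1 mM EGTA, 1 mM DTT, 10 mM MgCl2 with 100 μM peptide substrate and [γ-33P]ATP. Reaction stopped with orthophosphoric acid, captured on P81 filters and counted; IC50 from 10 concentrations in duplicate.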", "units": {"IC50": "nM"}}
{"compound": "Cc1n[nH]c2ccnc(NCCc3ccc(Cl)cc3)c12", "note": "[Example 329, [2-(4-Chloro-phenyl)-ethyl]-(3-methyl-1H-pyrazolo[4,3-c]pyridin-4-yl)-amine]", "IC50": "100 to 1000"}
{"compound": "Cc1n[nH]c2ccnc(NCCc3ccccc3Cl)c12", "note": "[Example 330, [2-(2-Chloro-phenyl)-ethyl]-(3-methyl-1H-pyrazolo[4,3-c]pyridin-4-yl)-amine]", "IC50": "< 100"}
{"compound": "Cc1n[nH]c2ccnc(NCCc3cccc(Cl)c3)c12", "note": "[Example 331, [2-(3-Chloro-phenyl)-ethyl]-(3-methyl-1H-pyrazolo[4,3-c]pyridin-4-yl)-amine]", "IC50": "100 to 1000"}
{"compound": "Cc1n[nH]c2ccnc(NCCc3ccccc3F)c12", "note": "[Example 332, [2-(2-Fluoro-phenyl)-ethyl]-(3-methyl-1H-pyrazolo[4,3-c]pyridin-4-yl)-amine]", "IC50": "100 to 1000"}
{"compound": "Cc1n[nH]c2ccnc(NCCc3cccc(F)c3)c12", "note": "[Example 333, [2-(3-Fluoro-phenyl)-ethyl]-(3-methyl-1H-pyrazolo[4,3-c]pyridin-4-yl)-amine]", "IC50": "100 to 1000"}
{"compound": "Cc1n[nH]c2ccnc(NCCc3ccc(F)cc3)c12", "note": "[Example 334, [2-(4-Fluoro-phenyl)-ethyl]-(3-methyl-1H-pyrazolo[4,3-c]pyridin-4-yl)-amine]", "IC50": "100 to 1000"}
{"compound": "Cc1n[nH]c2ccnc(NCCc3ccccc3)c12", "note": "[Example 335]", "IC50": "100 to 1000"}
{"compound": "COc1ccccc1CNc1nccc2[nH]nc(C)c12", "note": "[Example 336]", "IC50": "1000 to 10000"}
{"compound": "Cc1n[nH]c2ccnc(NCCNc3ccccc3)c12", "note": "[Example 337, N-(3-Methyl-1H-pyrazolo[4,3-c]pyridin-4-yl)-N′-phenyl-ethane-1,2-diamine]", "IC50": "1000 to 10000"}
{"compound": "COc1ccc(CCNc2nccc3[nH]nc(C)c23)cc1", "note": "[Example 338, [2-(4-Methoxy-phenyl)-ethyl]-(3-methyl-1H-pyrazolo[4,3-c]pyridin-4-yl)-amine]", "IC50": "1000 to 10000"}
{"compound": "COc1ccccc1CCNc1nccc2[nH]nc(C)c12", "note": "[Example 339, [2-(2-Methoxy-phenyl)-ethyl]-(3-methyl-1H-pyrazolo[4,3-c]pyridin-4-yl)-amine]", "IC50": "1000 to 10000"}
{"compound": "CCOc1ccccc1CNc1nccc2[nH]nc(C)c12", "note": "[Example 340, (2-Ethoxy-benzyl)-(3-methyl-1H-pyrazolo[4,3-c]pyridin-4-yl)-amine]", "IC50": "1000 to 10000"}
{"compound": "Cc1n[nH]c2ccnc(Nc3cccc(OC(C)C)c3)c12", "note": "[Example 341, (3-Isopropoxy-phenyl)-(3-methyl-1H-pyrazolo[4,3-c]pyridin-4-yl)-amine]", "IC50": "1000 to 10000"}
{"compound": "Cc1n[nH]c2ccnc(NCCc3c[nH]c4ccccc34)c12", "note": "[Example 342, [2-(1H-Indol-3-yl)-ethyl]-(3-methyl-1H-pyrazolo[4,3-c]pyridin-4-yl)-amine]", "IC50": "1000 to 10000"}
{"compound": "Cc1n[nH]c2ccnc(NCCC(C)C)c12", "note": "[Example 343, (3-Methyl-butyl)-(3-methyl-1H-pyrazolo[4,3-c]pyridin-4-yl)-amine]", "IC50": "1000 to 10000"}
{"compound": "Cc1ccc(Nc2nccc3[nH]nc(C)c23)cn1", "note": "[Example 344, (3-Methyl-1H-pyrazolo[4,3-c]pyridin-4-yl)-(6-methyl-pyridin-3-yl)-amine]", "IC50": "1000 to 10000"}
{"compound": "Cc1n[nH]c2ccnc(NCCCn3cccn3)c12", "note": "[Example 345, (3-Methyl-1H-pyrazolo[4,3-c]pyridin-4-yl)-(3-pyrazol-1-yl-propyl)-amine]", "IC50": "1000 to 10000"}
{"compound": "Cc1n[nH]c2ccnc(Nc3ccc(C(F)(F)F)cc3)c12", "note": "[Example 346, (3-Methyl-1H-pyrazolo[4,3-c]pyridin-4-yl)-(4-trifluoromethyl-phenyl)-amine]", "IC50": "100 to 1000"}
{"compound": "Cc1n[nH]c2ccnc(Nc3cccc(C#N)c3)c12", "note": "[Example 347, 3-(3-Methyl-1H-pyrazolo[4,3-c]pyridin-4-ylamino)-benzonitrile]", "IC50": "100 to 1000"}
{"compound": "Cc1n[nH]c2ccnc(Nc3ccc(C#N)cc3)c12", "note": "[Example 348, 4-(3-Methyl-1H-pyrazolo[4,3-c]pyridin-4-ylamino)-benzonitrile]", "IC50": "1000 to 10000"}
{"compound": "Cc1n[nH]c2ccnc(Nc3ccc4ncoc4c3)c12", "note": "[Example 349, Benzoxazol-6-yl-(3-methyl-1H-pyrazolo[4,3-c]pyridin-4-yl)-amine]", "IC50": "100 to 1000"}
{"compound": "Cc1cc(C)c(Nc2nccc3[nH]nc(C)c23)cn1", "note": "[Example 350, (4,6-Dimethyl-pyridin-3-yl)-(3-methyl-1H-pyrazolo[4,3-c]pyridin-4-yl)-amine]", "IC50": "1000 to 10000"}
{"compound": "Cc1n[nH]c2ccnc(NCCc3cccnc3)c12", "note": "[Example 351, (3-Methyl-1H-pyrazolo[4,3-c]pyridin-4-yl)-(2-pyridin-3-yl-ethyl)-amine]", "IC50": "100 to 1000"}
{"compound": "Cc1n[nH]c2ccnc(Nc3ccc4nccnc4c3)c12", "note": "[Example 352, (3-Methyl-1H-pyrazolo[4,3-c]pyridin-4-yl)-quinoxalin-6-yl-amine]", "IC50": "1000 to 10000"}
{"compound": "Cc1n[nH]c2ccnc(Nc3cccc(-c4nnco4)c3)c12", "note": "[Example 353]", "IC50": "1000 to 10000"}
